{
  "source": "patent US20110039904A1",
  "about": "“Alcohol alkoxylates, agents comprising the same and use of the alcohol alkoxylates as adjuvants in the agrochemical field” (BASF SE, priority 2008, published 2011)",
  "system": "leaf rust of wheat \"Puccinia recondita\"",
  "assay": "Biotest: curative control of leaf rust of wheat (fungicidal efficacy of epoxiconazole with adjuvant)",
  "type": "in vivo, Puccinia recondita on wheat seedlings \"Kanzler\"",
  "settings": "50 ppm epoxiconazole without adjuvant; sprayed 2 days after inoculation; rated after 10 days; wheat seedlings, greenhouse",
  "method": "125 g/l epoxiconazole were ground together with in each case 20 g/l dispersant (Atlas G 5000^1, Synperonic A^1) and 50 g/l propylene glycol in aqueous medium in a stirred-ball mill (dyno-mill) until a particle size of 80% <2 μm was reached. To the mixture were added 3 g/l per liter antifoam, for example Rhodorsil 426^2, 3 g/l thickener, for example Rhodopol 23^2, and a biocide, for example Acticide MBS^3. The respective adjuvant, in aqueous solution or in a solvent, for example Solvesso, was stirred into this mixture, so that the final concentration of the formulation is composed of 62.5 g/l epoxiconazole and 125 g/l adjuvant.\nBiotest (curative control of leaf rust of wheat):\nLeaves of wheat seedlings of the species “Kanzler” which had been grown in pots were dusted, in the two-leaf stage, with spores of leaf rust of wheat “Puccinia recondita” and incubated for 2 days in the greenhouse at high atmospheric humidity. In fully automated spray cabins, the plants were then sprayed with the formulations which comprised the active ingredients and adjuvants specified hereinbelow. The spray mixtures comprised 50 ppm epoxiconazole and 100 ppm adjuvant. The ratio active ingredient to adjuvant was, accordingly, 1:2. […] After 10 days, the extent of the leaf rust disease was determined visually as disease percent of the total leaf area. 3 pots were evaluated for each combination.",
  "data": [
    {"smiles": "Fc1ccc([C@]2(Cn3cncn3)O[C@H]2c2ccccc2Cl)cc1", "note": "(racemic) [Epoxiconazole, epoxiconazole]", "values": [
      {"measurement": "% infection (leaf rust disease percent of the total leaf area, determined visually)", "value": 23, "unit": "%"}
    ]}
  ]
}
